Key:
[1] = Ferric-reducing antioxidant power (FRAP) assay; settings: concentration for 50% of maximal ferric-reducing capacity; mean ± SD, triplicate
Method: The antioxidant capacity of the tested compounds was evaluated using the ferric-reducing antioxidant power (FRAP) assay, based on the reduction of ferric-tripyridyltriazine (Fe^3+-TPTZ) complex to its ferrous form (Fe^2+), resulting in a blue-colored product with a maximum absorbance at 593 nm. The assay was performed according to the modified method of Benzie and Strain [13], with modifications for microplate format and adjusted concentration ranges according to Rodrigues et al.. The FRAP working solution was freshly prepared by mixing 300 mM acetate buffer (pH 3.6), 10 mM TPTZ in 40 mM HCl, and 20 mM FeCl3·6H2O in a 10:1:1 volume ratio. The mixture was warmed to 37 °C before use to ensure optimal reaction conditions. For each reaction, 180 µL of the freshly prepared FRAP reagent was added to a well of a 96-well microplate, followed by 20 µL of the test compound at different concentrations (1–200 µg/mL) prepared in methanol. The mixture was incubated at 37 °C for 30 min. The increase in absorbance was measured at 593 nm using a microplate reader. […] All measurements were performed in triplicate and presented as the mean ± standard deviation.

[2] = ABTS radical-scavenging assay; settings: mean ± SD
Method: The ABTS assay was determined according to Elbouzidi et al., with some modifications. The stock solutions included 7.4 mM ABTS and 2.6 mM potassium persulfate. ABTS radical cation was prepared by mixing the two stock solutions in equal quantities and allowed to stand for 16 h at room temperature in the dark. And then, ABTS radical solution was adjusted with phosphate-buffered saline (pH 7.4) to an absorbance of 0.7–0.8 at 734 nm. For this assay, 190 μL of ABTS radical solution was mixed with 10 μL of each test sample solution in 96-well plates. After 60 min, the decrease of absorbance was measured at 734 nm using a microplate reader (Thermo Fisher Scientific Inc., Waltham, MA, USA). The standard curve was linear between 0.025 and 0.9 mM Trolox. […] Additional dilution was needed if the ABTS value measured was over the linear range of the standard curve.

[3] = target: T1, porcine pancreatic lipase (Sus scrofa, UniProt P00591); test: porcine pancreatic lipase inhibition assay (PNPB substrate); type: biochemical; settings: experimental; means ± SD of three independent replicates; read-out: LIP IC50 (lipase inhibition) (converted)
T1 construct: purchased Sigma Aldrich
T1 sequence (P00591 1-450): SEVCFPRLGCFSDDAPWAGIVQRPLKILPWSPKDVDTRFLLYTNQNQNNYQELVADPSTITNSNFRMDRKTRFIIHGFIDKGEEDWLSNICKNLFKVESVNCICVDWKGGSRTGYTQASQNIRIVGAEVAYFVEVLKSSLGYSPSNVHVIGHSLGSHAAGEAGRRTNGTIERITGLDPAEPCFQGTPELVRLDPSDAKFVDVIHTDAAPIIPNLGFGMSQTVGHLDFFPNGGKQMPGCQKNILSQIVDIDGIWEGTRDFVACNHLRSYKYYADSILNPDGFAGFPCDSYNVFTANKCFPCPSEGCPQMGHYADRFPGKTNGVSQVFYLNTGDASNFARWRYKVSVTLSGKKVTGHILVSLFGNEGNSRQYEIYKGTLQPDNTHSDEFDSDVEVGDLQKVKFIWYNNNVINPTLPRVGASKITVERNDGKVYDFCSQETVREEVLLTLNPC
Method: (§1) Aldose Reductase Inhibitor Screening Kit (Biovision, Milpitas, CA, USA) was used for the aldose reductase inhibition assay.
The porcine pancreatic lipase inhibition assay was utilized in this work, with modifications made based on a previous study. A stock solution of each compound at 1 mg/mL in 10% DMSO was used to prepare […] with concentrations 1, 5, 10, 50, 100, 200 µg/mL by means of dilution with methanol. Just before usage, the pancreatic lipase enzyme was freshly produced as a 1 mg/mL stock solution. […] In individual test tubes, 0.1 mL of porcine pancreatic lipase (1 mg/mL) was mixed with 0.2 mL of each compound concentration. To achieve a final volume of 1 mL, the Tri-HCl solution (pH 7.4) was added, and the mixtures were incubated at 25 °C for 15 min. Following the incubation, 0.1 mL of PNPB solution was introduced to each test tube. The mixtures were once again incubated for 30 min at 37 °C. […] All tests were conducted in triplicate, and the inhibition was calculated as per Equation (1).(1) %Lipase Inhibition=AB−AE/AB×100 where AB is the recorded absorbance of the blank solution, and AE is the recorded absorbance of the compound’s solution.

aldose reductase = target: T2, aldose reductase (Homo sapiens, UniProt P15121); test: aldose reductase inhibition assay (Aldose Reductase Inhibitor Screening Kit); type: biochemical; settings: experimental; means ± SD of three independent replicates; read-out: ALR IC50 (aldose reductase inhibition) (converted)
T2 construct: purchased Biovision, Milpitas, CA, USA
Method: Aldose Reductase Inhibitor Screening Kit (Biovision, Milpitas, CA, USA) was used for the aldose reductase inhibition assay. Determination of the aldose reductase inhibitory effectiveness of the investigated compounds was performed kinetically using the Aldose Reductase Inhibitor Screening Kit (Biovision, Milpitas, CA, USA), according to the manufacturer's protocol. The decrease in the absorption of NADPH at 340 nm was measured in a mixture containing NADPH, the enzyme, and its substrate, […], in addition to test samples [21]. […] After incubation, 40 μL of enzyme substrate in assay buffer was added, and the absorbance was measured at 340 nm kinetically for 60-90 min at 37 °C. A background control free from the enzyme was run and subtracted from the readings. The IC50 was calculated and presented for the samples and the standard.

[4] = target: T3, α-amylase from porcine pancreas (Sus scrofa, UniProt P00690); test: α-amylase inhibition assay (CNPG3 substrate); type: biochemical; settings: experimental; means ± SD of three independent replicates; read-out: AAI IC50 (α-amylase inhibition) (converted)
T3 construct: purchased Sigma Aldrich; host or cells: porcine pancreas
T3 sequence (P00690 16-511): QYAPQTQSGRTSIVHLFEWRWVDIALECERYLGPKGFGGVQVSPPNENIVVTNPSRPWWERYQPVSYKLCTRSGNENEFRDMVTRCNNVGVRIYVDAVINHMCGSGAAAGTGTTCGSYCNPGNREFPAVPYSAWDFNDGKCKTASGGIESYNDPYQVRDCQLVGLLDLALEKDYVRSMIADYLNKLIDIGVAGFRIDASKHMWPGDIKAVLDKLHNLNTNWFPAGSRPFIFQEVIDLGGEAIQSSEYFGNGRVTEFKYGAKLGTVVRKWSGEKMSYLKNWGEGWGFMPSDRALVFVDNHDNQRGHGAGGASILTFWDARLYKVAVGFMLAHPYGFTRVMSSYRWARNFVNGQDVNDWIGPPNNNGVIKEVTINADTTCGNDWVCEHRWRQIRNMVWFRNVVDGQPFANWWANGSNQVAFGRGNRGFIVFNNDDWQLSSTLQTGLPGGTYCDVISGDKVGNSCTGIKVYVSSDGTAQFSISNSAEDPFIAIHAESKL
Method: as §1
A pre-incubation mixture was prepared which contained 40 mM phosphate buffer (pH 6.9) together with different concentrations (1, 5, 10, 50, 100, 200 µg/mL) of the compounds. A 0.2 U of α-amylase enzyme was added to this mixture, and the plate was then incubated for 15 min at 37 °C. Then, 2-chloro-4-nitrophenyl maltotrioside (CNPG3) substrate was added, where the final concentration was 0.9 µmole/mL. […] A control which was devoid of the compounds was also run in parallel.

[5] = target: α-glucosidase enzyme from Saccharomyces cerevisiae; test: α-glucosidase inhibition assay (PNP-G substrate); type: biochemical; settings: experimental; means ± SD of three independent replicates
Method: as §1
The activity of the compounds was assessed spectrophotometrically according to Li et al., with slight modifications. In a volume of 100 µL of 40 mM phosphate buffer (pH 6.9), different concentrations (1, 5, 10, 50, 100, 200 µg/mL) of the compounds were prepared. The tested samples were added to a reaction mixture in a 96-well microplate containing 20 µL of the phosphate buffer and 20 µL of 5 mM p-nitrophenyl α -D-glucopyranoside (PNP-G) in the buffer. […] The IC50 for test compounds as well as the standard was calculated and presented.

[6] = Cupric ion-reducing antioxidant capacity (CUPRAC) assay; settings: concentration for 50% of maximal cupric-reducing activity; mean ± SD, triplicate
Method: The total antioxidant capacity of the tested monoterpenes was also assessed using the Cupric ion-reducing antioxidant capacity (CUPRAC) assay, which measures the ability of antioxidants to reduce the Cu^2+-neocuproine complex to the stable-colored Cu^+-neocuproine chelate, absorbing at 450 nm. The assay was carried out following the protocol provided by the CUPRAC assay kit (Bioquochem, Asturias, Spain), with slight modifications to accommodate the tested compounds according to Salem et al.. The CUPRAC working solution consisted of a mixture of copper (II) chloride (10 mM), neocuproine (7.5 mM), and ammonium acetate buffer (1 M, pH 7.0) in a 1:1:1 volume ratio. For the assay, 40 µL of each test solution (prepared in methanol at concentrations ranging from 1 to 200 µg/mL) was added to 200 µL of the CUPRAC working solution in a well of a 96-well plate. The plate was incubated at room temperature for 30 min in the dark to allow full color development. The absorbance was then measured at 450 nm using a microplate spectrophotometer (Thermo Fisher Scientific Inc., Waltham, MA, USA). […] All tests were conducted in triplicate, and results are presented as mean ± SD.

O=C1O[C@H]([C@@H](O)CO)C(O)=C1O [AA, ascorbic acid, reference compound]
FRAP EC50 [1]: 56.92 ± 2.99 mg/L
ABTS IC50 [2]: 136.78 ± 5.97 mg/L

Cc1cc(C(C)(C)C)c(O)c(C(C)(C)C)c1 [BHT, butylated hydroxytoluene, reference compound]
FRAP EC50 [1]: 63.88 ± 4.83 mg/L
ABTS IC50 [2]: 153.55 ± 9.65 mg/L

CC12CCC(CC1=O)C2(C)C (centres unmarked) [Camphor]
FRAP EC50 [1]: 1459.83 ± 39.96 mg/L
IC50 [3]: 3540 µM
ABTS IC50 [2]: 755.82 ± 67.30 mg/L
IC50 (aldose reductase): 1710 µM
IC50 [4]: 2340 µM
AGI IC50 (α-glucosidase inhibition) [5]: 484.95 ± 17.65 mg/L

C=CCc1ccc(O)c(OC)c1 [Eugenol]
FRAP EC50 [1]: 78.55 ± 8.74 mg/L
IC50 [3]: 388 µM
ABTS IC50 [2]: 19.42 ± 0.58 mg/L
IC50 (aldose reductase): 241 µM
IC50 [4]: 339 µM
CUPRAC IC50 [6]: 39.53 ± 2.83 mg/L
AGI IC50 (α-glucosidase inhibition) [5]: 84.93 ± 6.14 mg/L

CC1=CCC(C(C)(C)O)CC1 (stereo not drawn) [Terpineol, α-terpineol]
FRAP EC50 [1]: 389.01 ± 9.53 mg/L
IC50 [3]: 392 µM
ABTS IC50 [2]: 476.49 ± 19.93 mg/L
IC50 (aldose reductase): 899 µM
IC50 [4]: 1740 µM
AGI IC50 (α-glucosidase inhibition) [5]: 340.42 ± 23.19 mg/L
